From patent US12514852B2 (CINDOME PHARMA, INC., priority 2018, dated 2026)

How the values were obtained:
beagle dogs [1] = assay: Dog cardiovascular study, QTc, d4-domperidone capsules (Example 3); assay type: in vivo; details: male dogs; for QTc Percent Change Segment 1 (0-6 hours) / QTc Percent Change Segment 2 (7-24 hours) / QTc change Segment 1 (0-6 hours) / QTc change Segment 2 (7-24 hours): vs time-matched control; for Duration of Effect (hours post dose): QTc
Protocol: Oral suspensions were administered via gavage for comparison purposes. […]
One animal/treatment was dosed each week with at least a 3-day washout period between administrations until each animal received all treatments. See, Table 5. The same 5 animals received all treatments according to a Latin square design with at least a 3-day washout between treatments. Body temperature, blood pressure, heart rate, and the electrocardiogram (ECG) were monitored continuously for at least 2 hours prior to dosing and for at least 24 hours post dose.
Three days prior to the study, the animals were continuously monitored for at least 24 hours for body temperature and cardiovascular endpoints while on the stock colony (10 days prior to the first administration). […] The first 24 hours of the data were used in the calculation of the QTc interval. Body temperature, blood pressure, heart rate (derived from blood pressure and ECG), and the ECG were monitored continuously from at least 2 hours predose until at least 24 hours post dose. Data were collected and analyzed in 1-minute intervals and are reported in 15-minute intervals. The QTc interval was calculated using a procedure based on the method described by Spence (“The heart rate corrected QT interval of conscious beagle dogs: a formula based on analysis of covariance,” Toxicol Sci, 1998; 45:247 258) and modified by Miyazaki and Tagawa (“Rate-correction technique for QT interval in long term telemetry ECG recording in beagle dogs,” Exp. Anim., 2002; 51:465 475). Blood samples (approximately 1 mL) were collected via jugular vein and 8 and 24 hours post dose to confirm exposure.
Table 6 indicates the change (% and ms) from the appropriate time-matched control for each d4-domperidone treatment.

beagle dogs [2] = assay: Dog cardiovascular study, QTc, non-deuterated domperidone by gavage (Example 3); assay type: in vivo; details: for QTc Maximum % Change / Time of QTc Maximum % Change / QTc Percent Change Segment 1 (0-6 hours) / QTc Percent Change Segment 2 (7-24 hours) / QTc change Segment 1 (0-6 hours) / QTc change Segment 2 (7-24 hours) / QTcVdW increase (Van de Water formula) / Duration of Effect (hours post dose): beagle dogs; for QTc Percent Change Segment 1 (0-6 hours) / QTc Percent Change Segment 2 (7-24 hours) / QTc change Segment 1 (0-6 hours) / QTc change Segment 2 (7-24 hours): vs time-matched control; for Duration of Effect (hours post dose): QTc
Protocol: Oral suspensions were administered via gavage for comparison purposes.
USP. The d4-domperidone formulation was Formulation A, Example 1. […] One animal/treatment was dosed each week with at least a 2-day washout period between administrations until each animal received all treatments. The same 4 animals received treatments according to a Latin square design. Systolic blood pressure, diastolic blood pressure, heart rate and Lead II electrocardiogram were continuously recorded. The measurements started 1.5 hrs prior to the dose administration and all parameters were continuously recorded 24 hrs following the end of dosing of the last animal.
The individual animal correction (QTcVdW) was calculated using Van de Water formula.

in vivo = details: male, Beagle, dog, plasma, po, 1 mg/kg

For `[2H]c1c([2H])c([2H])c2c([nH]c(=O)n2CCCN2CCC(n3c(=O)[nH]c4cc(Cl)ccc43)CC2)c1[2H]` [d4-domperidone, 1-{3-[4-(5-chloro-2-oxo-2,3-dihydro-1H-1,3-benzodiazol-1-yl)piperidin-1yl]propyl}-2,3-dihydro(4,5,6,7-D4)-1H-1,3-benzodiazol-2-one], the “QTc Maximum % Change” value (beagle dogs [1]; 20 mg capsule) was 4%, the “Time of QTc Maximum % Change” value (beagle dogs [1]; 20 mg capsule) was 3.5 h and the “QTc Percent Change Segment 1 (0-6 hours)” value (beagle dogs [1]; 20 mg capsule) was “+1%”. The “QTc Percent Change Segment 2 (7-24 hours)” value (beagle dogs [1]; 20 mg capsule) was “+0%”, the “QTc change Segment 1 (0-6 hours)” value (beagle dogs [1]; 20 mg capsule) was 3 ms and the “QTc change Segment 2 (7-24 hours)” value (beagle dogs [1]; 20 mg capsule) was 1 ms. The “Time of QTc Maximum % Change” value (beagle dogs [1]; 110 mg capsule) was 5 h, the “QTc Percent Change Segment 1 (0-6 hours)” value (beagle dogs [1]; 110 mg capsule) was “+5%” and the “QTc Percent Change Segment 2 (7-24 hours)” value (beagle dogs [1]; 110 mg capsule) was “+1%”. The “QTc change Segment 1 (0-6 hours)” value (beagle dogs [1]; 110 mg capsule) was 12 ms, the “QTc change Segment 2 (7-24 hours)” value (beagle dogs [1]; 110 mg capsule) was 2 ms and the “QTc Maximum % Change” value (beagle dogs [1]; 110 mg capsule, statistically significant) was 10%. The “Time of QTc Maximum % Change” value (beagle dogs [1]; 385 mg capsule) was 6 h, the “QTc Percent Change Segment 1 (0-6 hours)” value (beagle dogs [1]; 385 mg capsule) was “+8%” and the “QTc Percent Change Segment 2 (7-24 hours)” value (beagle dogs [1]; 385 mg capsule) was “+6%”. The “QTc change Segment 1 (0-6 hours)” value (beagle dogs [1]; 385 mg capsule) was 17 ms, the “QTc change Segment 2 (7-24 hours)” value (beagle dogs [1]; 385 mg capsule) was 13 ms and the “QTc Maximum % Change” value (beagle dogs [1]; 385 mg capsule, statistically significant) was 13%. The “Duration of Effect (hours post dose)” value (beagle dogs [1]; 20 mg capsule) was 1.5-12 hours post dose and the “Duration of Effect (hours post dose)” value (beagle dogs [1]; 110 mg capsule) was 0.5-12 hours post dose.

In the case of `O=c1[nH]c2ccccc2n1CCCN1CCC(n2c(=O)[nH]c3cc(Cl)ccc32)CC1` [domperidone, 5-chloro-1-(1-[3-(2-oxo-2,3-dihydro-1H-benzo[d]imidazol-1-yl)propyl]piperidin-4-yl)-1H-benzo[d]imidazol-2(3H)-one], the “QTc Maximum % Change” value (beagle dogs [2]; 1 mg/kg gavage) is reported as 6%, the “Time of QTc Maximum % Change” value (beagle dogs [2]; 1 mg/kg gavage) is reported as 2 h and the “QTc Percent Change Segment 1 (0-6 hours)” value (beagle dogs [2]; 1 mg/kg gavage) is reported as “+6%”. For the same molecule, the “QTc Percent Change Segment 2 (7-24 hours)” value (beagle dogs [2]; 1 mg/kg gavage) was “+2%”, the “QTc change Segment 1 (0-6 hours)” value (beagle dogs [2]; 1 mg/kg gavage) was 13 ms and the “QTc change Segment 2 (7-24 hours)” value (beagle dogs [2]; 1 mg/kg gavage) was 4 ms. The “Time of QTc Maximum % Change” value (beagle dogs [2]; 5 mg/kg gavage) was 2 h, the “QTc Percent Change Segment 1 (0-6 hours)” value (beagle dogs [2]; 5 mg/kg gavage) was “+11%” and the “QTc Percent Change Segment 2 (7-24 hours)” value (beagle dogs [2]; 5 mg/kg gavage) was “+7%”. The “QTc change Segment 1 (0-6 hours)” value (beagle dogs [2]; 5 mg/kg gavage) was 23 ms, the “QTc change Segment 2 (7-24 hours)” value (beagle dogs [2]; 5 mg/kg gavage) was 15 ms and the “QTc Maximum % Change” value (beagle dogs [2]; 5 mg/kg gavage, statistically significant) was 11%. The “QTcVdW increase (Van de Water formula)” value (beagle dogs [2]; 5 mg/kg) was “up to 23 msec”, the “Time of QTc Maximum % Change” value (beagle dogs [2]; 20 mg/kg gavage) was 2 h and the “QTc Percent Change Segment 1 (0-6 hours)” value (beagle dogs [2]; 20 mg/kg gavage) was “+10%”. The “QTc Percent Change Segment 2 (7-24 hours)” value (beagle dogs [2]; 20 mg/kg gavage) was “+7%”, the “QTc change Segment 1 (0-6 hours)” value (beagle dogs [2]; 20 mg/kg gavage) was 21 ms and the “QTc change Segment 2 (7-24 hours)” value (beagle dogs [2]; 20 mg/kg gavage) was 16 ms. The “QTc Maximum % Change” value (beagle dogs [2]; 20 mg/kg gavage, statistically significant) was 10%, the “QTcVdW increase (Van de Water formula)” value (beagle dogs [2]; 20 mg/kg) was ≤ 21 ms and the “effect on QTc change, lower doses of non-deuterated formulation compared to higher doses of deuterated formulation” value (beagle dogs [2]; FIGS. 9 and 10, beagle dogs, in words) was “greater effect on QTc change”. The “Duration of Effect (hours post dose)” value (beagle dogs [2]; 1 mg/kg gavage) was 1-2 hours post dose, the “Duration of Effect (hours post dose)” value (beagle dogs [2]; 5 mg/kg gavage) was 0.5-6 hours post dose and the “Duration of Effect (hours post dose)” value (beagle dogs [2]; 20 mg/kg gavage) was 0.5-4 hours post dose. For the same molecule, the MRT last (in vivo) was 5 h.
